Measurements reported in US20220187282A1, “CARDIOMYOCYTE PROLIFERATION” (The Council of the Queensland Institute of Medical Research, priority 2019, published 2022).
Where two headings read alike, the source gives them in different places.

Legend:
Format in all cases: biochemical
[1] = molecular target: kinases (Homo sapiens, UniProt Q92630); conditions: DYRK2 FRET-Lantha SP; Test Conc(μM) 1
[2] = molecular target: kinases (Homo sapiens, UniProt P29597); conditions: TYK2 FRET-Z-Lyte SP; Test Conc(μM):ATP Conc(μM) 1:25
[3] = molecular target: kinases (Homo sapiens, UniProt Q13976); conditions: PRKG1 FRET-Z-Lyte SP; Test Conc(μM):ATP Conc(μM) 1:25
[4] = molecular target: kinases (Homo sapiens, UniProt P16234); conditions: PDGFRA *Mn* FRET-Z-Lyte SP; Test Conc(μM):ATP Conc(μM) 1:10
[5] = molecular target: kinases (Homo sapiens, UniProt P45985); conditions: MAP2K4 (MEK4) FRET-Lantha SP; Test Conc(μM) 1
[6] = molecular target: kinases (Homo sapiens, UniProt P00533); conditions: EGFR (ErbB1) *Mn* Z-Lyte SP; Test Conc(μM):ATP Conc(μM) 1:10
[7] = molecular target: kinases (Homo sapiens, UniProt Q9UEE5); conditions: STK17A (DRAK1) FRET-Lantha SP; Test Conc(μM) 1
[8] = molecular target: kinases (Homo sapiens, UniProt Q13557); conditions: CAMK2D FRET-Z-Lyte SP; Test Conc(μM):ATP Conc(μM) 1:5
[9] = molecular target: kinases (Homo sapiens, UniProt P51812); conditions: RPS6KA3 (RSK2) FRET-Z-Lyte SP; Test Conc(μM):ATP Conc(μM) 1:10
[10] = molecular target: kinases (Homo sapiens, UniProt P22607); conditions: FGFR3 *Mn* FRET-Z-Lyte SP; Test Conc(μM):ATP Conc(μM) 1:75
[11] = molecular target: kinases (Homo sapiens, UniProt P41743); conditions: PRKCI (PKC iota) Z-Lyte SP; Test Conc(μM):ATP Conc(μM) 1:25
[12] = molecular target: kinases (Homo sapiens, UniProt Q9NRA0); conditions: SPHK2 FRET-Adapta SP; Test Conc(μM):ATP Conc(μM) 1:10
[13] = molecular target: kinases (Homo sapiens, UniProt Q9Y572); conditions: RIPK3 FRET-Lantha SP; Test Conc(μM) 1
[14] = molecular target: kinases (Homo sapiens, UniProt Q76MJ5); conditions: ERN2 FRET-Lantha SP; Test Conc(μM) 1
[15] = molecular target: kinases (Homo sapiens, UniProt Q16513); conditions: PKN2 (PRK2) FRET-lantha SP; Test Conc(μM) 1
[16] = molecular target: kinases (Homo sapiens, UniProt P53350); conditions: PLK1 FRET-Z-Lyte SP; Test Conc(μM):ATP Conc(μM) 1:10
[17] = molecular target: kinases (Homo sapiens, UniProt P09619); conditions: PDGFRB *Mn* FRET-Z-Lyte SP; Test Conc(μM):ATP Conc(μM) 1:100
[18] = molecular target: kinases (Homo sapiens, UniProt O00750); conditions: PIK3C2B FRET-Adapta SP; Test Conc(μM):ATP Conc(μM) 1:10
[19] = molecular target: kinases (Homo sapiens, UniProt Q13555); conditions: CAMK2G FRET-Lantha SP; Test Conc(μM) 1
[20] = molecular target: kinases (Homo sapiens, UniProt Q99759); conditions: MAP3K3 (MEKK3) FRET-Lantha SP; Test Conc(μM) 1
[21] = molecular target: kinases (Homo sapiens, UniProt P19525); conditions: EIF2AK2 (PKR) FRET-Lantha SP; Test Conc(μM) 1
[22] = molecular target: kinases (Homo sapiens, UniProt Q8IW41); conditions: MAPKAPK5 (PRAK) FRET-Z-Lyte SP; Test Conc(μM):ATP Conc(μM) 1:10
[23] = molecular target: kinases (Homo sapiens, UniProt P41240); conditions: CSK FRET-Z-Lyte SP; Test Conc(μM):ATP Conc(μM) 1:10
[24] = molecular target: kinases (Homo sapiens, UniProt P51617); conditions: IRAK1 FRET-Adapta SP; Test Conc(μM):ATP Conc(μM) 1:25
[25] = molecular target: kinases (Homo sapiens, UniProt P45984)
[26] = molecular target: kinases (Homo sapiens, UniProt O75676); conditions: RPS6KA4 (MSK2) FRET-Z-Lyte SP; Test Conc(μM):ATP Conc(μM) 1:10
[27] = molecular target: kinases (Homo sapiens, UniProt P06213); conditions: INSR *Mn* FRET-Z-Lyte SP; Test Conc(μM):ATP Conc(μM) 1:25
[28] = molecular target: kinases (Homo sapiens, UniProt O15111); conditions: CHUK(IKK alpha) FRET-Adapta SP; Test Conc(μM):ATP Conc(μM) 1:10
[29] = MAPK9 (JNK2) Cascade Z-Lyte SP, Test Conc(μM):ATP Conc(μM) 1:100
[30] = MAPK9 (JNK2) FRET-Lantha SP, Test Conc(μM) 1

Chain of kinases (Homo sapiens, UniProt P45984) (P45984 whole entry): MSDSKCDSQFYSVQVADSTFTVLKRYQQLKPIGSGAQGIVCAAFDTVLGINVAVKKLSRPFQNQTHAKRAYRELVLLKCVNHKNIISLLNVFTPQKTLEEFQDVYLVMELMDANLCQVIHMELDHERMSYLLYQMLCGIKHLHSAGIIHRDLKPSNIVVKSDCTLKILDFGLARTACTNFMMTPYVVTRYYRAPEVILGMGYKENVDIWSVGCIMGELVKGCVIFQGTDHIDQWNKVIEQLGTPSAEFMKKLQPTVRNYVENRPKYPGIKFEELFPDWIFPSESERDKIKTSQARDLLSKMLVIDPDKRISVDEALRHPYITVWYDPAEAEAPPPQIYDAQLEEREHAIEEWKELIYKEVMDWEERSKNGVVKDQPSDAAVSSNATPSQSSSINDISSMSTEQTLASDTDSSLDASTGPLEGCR
Chain of kinases (Homo sapiens, UniProt O15111) (O15111 whole entry): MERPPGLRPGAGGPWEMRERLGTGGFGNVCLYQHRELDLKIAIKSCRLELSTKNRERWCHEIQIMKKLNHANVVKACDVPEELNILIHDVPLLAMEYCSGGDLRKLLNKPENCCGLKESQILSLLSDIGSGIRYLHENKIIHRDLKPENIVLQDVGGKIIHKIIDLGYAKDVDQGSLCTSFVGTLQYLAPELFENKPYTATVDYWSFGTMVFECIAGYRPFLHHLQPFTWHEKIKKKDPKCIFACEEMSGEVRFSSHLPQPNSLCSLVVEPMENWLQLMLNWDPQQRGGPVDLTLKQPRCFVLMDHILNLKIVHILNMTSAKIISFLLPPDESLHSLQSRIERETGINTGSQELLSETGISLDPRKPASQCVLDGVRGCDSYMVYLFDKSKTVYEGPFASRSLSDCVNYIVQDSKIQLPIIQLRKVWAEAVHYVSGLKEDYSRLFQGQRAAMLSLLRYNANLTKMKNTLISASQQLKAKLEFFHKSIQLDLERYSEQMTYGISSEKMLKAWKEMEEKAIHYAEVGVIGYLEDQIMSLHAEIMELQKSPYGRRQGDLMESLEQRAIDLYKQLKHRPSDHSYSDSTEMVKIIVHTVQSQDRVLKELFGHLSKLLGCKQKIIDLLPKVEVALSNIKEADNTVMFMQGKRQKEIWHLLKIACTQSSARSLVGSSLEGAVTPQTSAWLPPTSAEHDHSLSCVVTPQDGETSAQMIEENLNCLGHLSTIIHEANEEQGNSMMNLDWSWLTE
Chain of kinases (Homo sapiens, UniProt P22607) (P22607 23-806): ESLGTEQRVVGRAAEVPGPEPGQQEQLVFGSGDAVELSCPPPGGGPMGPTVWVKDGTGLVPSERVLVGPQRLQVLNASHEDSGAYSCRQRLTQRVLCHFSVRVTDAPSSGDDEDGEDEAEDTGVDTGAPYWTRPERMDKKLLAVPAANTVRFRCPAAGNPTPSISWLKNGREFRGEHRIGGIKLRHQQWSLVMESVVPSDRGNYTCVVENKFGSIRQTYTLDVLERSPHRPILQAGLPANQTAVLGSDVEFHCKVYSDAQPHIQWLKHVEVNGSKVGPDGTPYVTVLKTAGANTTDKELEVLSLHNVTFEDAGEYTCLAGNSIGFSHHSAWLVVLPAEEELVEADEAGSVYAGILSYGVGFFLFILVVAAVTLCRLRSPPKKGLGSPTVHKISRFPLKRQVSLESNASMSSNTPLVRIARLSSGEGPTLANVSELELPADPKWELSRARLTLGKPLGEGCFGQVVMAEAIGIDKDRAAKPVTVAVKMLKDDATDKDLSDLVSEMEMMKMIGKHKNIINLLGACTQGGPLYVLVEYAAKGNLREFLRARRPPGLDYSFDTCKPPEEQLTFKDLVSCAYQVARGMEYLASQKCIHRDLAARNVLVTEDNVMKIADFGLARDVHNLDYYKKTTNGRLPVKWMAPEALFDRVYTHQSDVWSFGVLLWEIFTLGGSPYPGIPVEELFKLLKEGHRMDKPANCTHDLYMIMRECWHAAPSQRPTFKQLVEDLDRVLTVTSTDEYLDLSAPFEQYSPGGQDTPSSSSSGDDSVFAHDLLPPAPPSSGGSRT
Chain of kinases (Homo sapiens, UniProt Q13555) (Q13555 whole entry): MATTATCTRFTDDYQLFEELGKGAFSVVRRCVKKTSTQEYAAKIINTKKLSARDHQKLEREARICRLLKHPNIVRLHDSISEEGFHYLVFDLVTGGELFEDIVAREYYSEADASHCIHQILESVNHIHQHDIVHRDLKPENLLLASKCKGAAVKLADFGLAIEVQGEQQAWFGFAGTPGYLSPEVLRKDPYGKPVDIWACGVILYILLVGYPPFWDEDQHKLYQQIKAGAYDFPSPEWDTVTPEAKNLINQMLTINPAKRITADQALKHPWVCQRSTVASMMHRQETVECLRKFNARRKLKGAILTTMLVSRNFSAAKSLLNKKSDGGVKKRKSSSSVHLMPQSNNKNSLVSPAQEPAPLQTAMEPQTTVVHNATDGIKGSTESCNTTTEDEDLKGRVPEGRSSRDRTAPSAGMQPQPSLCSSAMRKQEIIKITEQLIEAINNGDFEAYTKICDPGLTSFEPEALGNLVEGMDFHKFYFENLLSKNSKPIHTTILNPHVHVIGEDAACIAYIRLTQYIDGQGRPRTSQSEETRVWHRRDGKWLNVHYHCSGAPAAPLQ
Chain of kinases (Homo sapiens, UniProt Q8IW41) (Q8IW41 whole entry): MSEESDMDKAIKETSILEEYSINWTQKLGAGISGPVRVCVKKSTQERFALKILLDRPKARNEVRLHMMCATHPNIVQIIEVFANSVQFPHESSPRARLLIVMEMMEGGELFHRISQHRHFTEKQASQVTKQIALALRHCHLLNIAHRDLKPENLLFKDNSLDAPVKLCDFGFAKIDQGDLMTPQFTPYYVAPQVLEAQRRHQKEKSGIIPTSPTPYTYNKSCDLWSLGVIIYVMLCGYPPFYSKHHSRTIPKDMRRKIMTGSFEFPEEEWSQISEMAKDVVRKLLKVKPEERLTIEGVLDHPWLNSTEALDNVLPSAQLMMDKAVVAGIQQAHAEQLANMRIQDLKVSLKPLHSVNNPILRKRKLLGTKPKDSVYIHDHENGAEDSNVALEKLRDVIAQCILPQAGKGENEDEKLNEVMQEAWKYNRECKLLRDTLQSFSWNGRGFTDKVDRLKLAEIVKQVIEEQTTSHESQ
Chain of kinases (Homo sapiens, UniProt Q76MJ5) (Q76MJ5 35-926): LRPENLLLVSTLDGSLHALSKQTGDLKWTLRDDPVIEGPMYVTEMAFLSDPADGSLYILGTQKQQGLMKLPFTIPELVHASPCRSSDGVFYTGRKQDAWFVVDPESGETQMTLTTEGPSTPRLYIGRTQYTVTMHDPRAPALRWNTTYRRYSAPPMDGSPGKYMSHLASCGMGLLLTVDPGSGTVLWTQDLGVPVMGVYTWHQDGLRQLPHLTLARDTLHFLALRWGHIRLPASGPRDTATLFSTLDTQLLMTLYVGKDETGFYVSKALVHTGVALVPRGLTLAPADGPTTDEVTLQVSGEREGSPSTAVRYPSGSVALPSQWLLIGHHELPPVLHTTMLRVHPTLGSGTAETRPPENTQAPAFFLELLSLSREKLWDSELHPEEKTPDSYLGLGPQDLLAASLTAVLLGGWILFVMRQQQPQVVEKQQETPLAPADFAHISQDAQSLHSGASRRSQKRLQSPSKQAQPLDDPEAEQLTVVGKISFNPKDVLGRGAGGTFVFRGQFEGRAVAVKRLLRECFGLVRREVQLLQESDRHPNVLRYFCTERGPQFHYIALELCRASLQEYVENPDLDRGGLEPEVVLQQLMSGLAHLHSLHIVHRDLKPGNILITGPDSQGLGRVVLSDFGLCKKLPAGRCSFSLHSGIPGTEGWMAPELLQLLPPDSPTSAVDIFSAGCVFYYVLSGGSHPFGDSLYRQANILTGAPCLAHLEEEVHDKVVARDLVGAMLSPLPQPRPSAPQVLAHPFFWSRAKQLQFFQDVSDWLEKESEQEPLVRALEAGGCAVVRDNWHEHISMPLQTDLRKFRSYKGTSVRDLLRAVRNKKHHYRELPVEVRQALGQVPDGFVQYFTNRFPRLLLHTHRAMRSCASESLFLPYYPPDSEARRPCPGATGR
Chain of kinases (Homo sapiens, UniProt Q13557) (Q13557 whole entry): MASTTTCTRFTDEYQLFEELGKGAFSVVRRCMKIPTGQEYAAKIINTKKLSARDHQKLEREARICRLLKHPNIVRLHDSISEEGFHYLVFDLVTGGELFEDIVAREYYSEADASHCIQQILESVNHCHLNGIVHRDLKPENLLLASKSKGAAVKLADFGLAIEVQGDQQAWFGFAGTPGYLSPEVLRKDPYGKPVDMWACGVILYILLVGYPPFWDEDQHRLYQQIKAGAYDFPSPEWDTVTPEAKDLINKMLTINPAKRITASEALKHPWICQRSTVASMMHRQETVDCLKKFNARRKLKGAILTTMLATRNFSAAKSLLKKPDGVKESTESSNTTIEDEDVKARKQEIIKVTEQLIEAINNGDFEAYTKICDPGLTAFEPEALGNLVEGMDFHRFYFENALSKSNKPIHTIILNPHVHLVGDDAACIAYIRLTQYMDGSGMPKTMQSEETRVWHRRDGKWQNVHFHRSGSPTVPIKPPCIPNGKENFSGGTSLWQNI
Chain of kinases (Homo sapiens, UniProt Q9NRA0) (Q9NRA0 whole entry): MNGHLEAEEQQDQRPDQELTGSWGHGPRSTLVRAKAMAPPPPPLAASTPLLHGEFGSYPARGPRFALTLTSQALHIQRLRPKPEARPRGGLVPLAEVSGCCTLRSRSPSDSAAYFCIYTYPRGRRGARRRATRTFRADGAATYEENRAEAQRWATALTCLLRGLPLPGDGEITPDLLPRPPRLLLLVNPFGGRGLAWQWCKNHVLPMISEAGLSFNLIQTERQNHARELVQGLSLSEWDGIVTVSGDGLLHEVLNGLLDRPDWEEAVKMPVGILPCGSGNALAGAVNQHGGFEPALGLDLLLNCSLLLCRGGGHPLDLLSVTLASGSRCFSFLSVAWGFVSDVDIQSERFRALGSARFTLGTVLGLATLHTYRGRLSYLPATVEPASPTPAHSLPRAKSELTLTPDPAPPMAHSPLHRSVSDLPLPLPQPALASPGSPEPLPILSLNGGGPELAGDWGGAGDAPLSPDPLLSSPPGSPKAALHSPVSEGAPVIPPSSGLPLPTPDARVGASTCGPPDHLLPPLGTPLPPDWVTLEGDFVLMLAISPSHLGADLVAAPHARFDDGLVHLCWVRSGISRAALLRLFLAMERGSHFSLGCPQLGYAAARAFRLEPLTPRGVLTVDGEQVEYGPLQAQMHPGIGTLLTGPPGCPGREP

SMILES	Mean Inhib (%) [1]	Mean Inhib (%) [2]	Mean Inhib (%) [3]	Mean Inhib (%) [4]	Mean Inhib (%) [5]	Mean Inhib (%) [6]	Mean Inhib (%) [7]	Mean Inhib (%) [8]	Mean Inhib (%) [9]	Mean Inhib (%) [10]	Mean Inhib (%) [11]	Mean Inhib (%) [12]	Mean Inhib (%) [13]	Mean Inhib (%) [14]	Mean Inhib (%) [15]	Mean Inhib (%) [16]	Mean Inhib (%) [17]	Mean Inhib (%) [18]	Mean Inhib (%) [19]	Mean Inhib (%) [20]	also measured
Cc1cc(Oc2ccnc(Nc3ccc(S(N)(=O)=O)cc3)c2)c(-c2ccccn2)nc1C [compound 65]	9.6%	8.4%	0.3%	7.6%	14.1%	−1.9%	−1.2%	0.3%	−3.2%	7.7%	9.7%	−1.2%	76.6%	7.1%	5.1%	9.6%	3.9%	−0.9%	1.3%	14.8%	Mean Inhib (%) [21]: 3.6%; Mean Inhib (%) [22]: 1.9%; Mean Inhib (%) [23]: 6.4%; Mean Inhib (%) [24]: 5.1%; Mean Inhib (%) [25, 29]: 12.1%; Mean Inhib (%) [25, 30]: 5.2%; Mean Inhib (%) [26]: 5.3%; Mean Inhib (%) [27]: 1.5%; Mean Inhib (%) [28]: −6.2%
Cc1ccc(NC(=O)c2ccnc(N3CCOCC3)c2)cc1Nc1ccnc(N2CC(C)OC(C)C2)n1 (stereo not shown) [compound 3]	−0.5%	6.0%	5.7%	2.4%	−9.5%	1.5%	4.6%	8.1%	0.0%	−2.6%	−0.2%	−9.4%	20.9%	−3.5%	−2.6%	3.0%	15.5%	3.7%	−1.7%	5.2%	Mean Inhib (%) [21]: 2.8%; Mean Inhib (%) [22]: −1.3%; Mean Inhib (%) [23]: 10.1%; Mean Inhib (%) [24]: 11.2%; Mean Inhib (%) [25, 29]: 17.9%; Mean Inhib (%) [25, 30]: 5.3%; Mean Inhib (%) [26]: −0.8%; Mean Inhib (%) [27]: 2.1%; Mean Inhib (%) [28]: −6.9%
